According to publication PMC7403315, “Cyclic peptide FXII inhibitor provides safe anticoagulation in a thrombosis model and in artificial lungs” (Nature Communications, 2020):
Where “and” joins values, the source holds several entries; their conditions need not be identical. Equal values may be shown once. Read-outs that look alike come from different tables or passages of the source. Each block holds one molecule with its values, some of them ahead of it. Residues, ends and D or L forms follow the SMILES beside them.

Molecular target: T1, human β-FXIIa (Homo sapiens, UniProt P00748)
T1 construct: human β-FXIIa (Molecular Innovations cat #); purchased Molecular Innovations HFXIIAB; host or cells: human blood
Experiment: FXIIa protease inhibition assay with fluorogenic substrate Boc-Gln-Gly-Arg-AMC
Format: biochemical
Description: In order to test the inhibitory activity of peptides without prior purification, we developed the following method. […] After solid-phase peptide synthesis, cleavage, and ether precipitation, the peptides were chemically cyclized and their Ki values were determined in a FXIIa activity assay using a fluorogenic substrate.
Protease inhibition assays
The inhibitory activity of peptides was determined by measuring the residual protease activity with a fluorogenic substrate. The assay was performed in buffer containing 10 mM Tris-Cl, pH […]
1% (v/v) DMSO in a volume of 150 µl. FXIIa activity was measured with the fluorogenic substrate Boc-Gln-Gly-Arg-AMC (Bachem) at a final concentration of 50 µM. Mouse α-FXIIa (Molecular Innovations cat # MFXIIA) and human β-FXIIa (Molecular Innovations cat # HFXIIAB) were used at final concentrations of 0.4 nM. The reaction was pipetted as follows: 50 µl of bicyclic peptide in assay buffer were added to 50 µl of FXIIa in assay buffer and incubated for 10 minutes at 25°C before 50 µl of 150 µM fluorogenic substrate in assay buffer were added to measure the residual protease activity with an Infinite M200Pro fluorescence plate reader (excitation at 368 nm, emission at 467 nm; Tecan) for a period of 30 minutes with a read every minute at 25°C. The Tecan software i-control (version 1.1) was used for data analysis. Stock solutions of 1 mM bicyclic peptide were prepared by either dissolving the unpurified cyclization reaction with water or by dissolving purified and lyophilized peptide in water. The bicyclic peptides were serially diluted two-fold using assay buffer. Sigmoidal curves were fitted to the data using the following dose response equation (1), wherein x = peptide concentration, y = % protease activity, and p = Hill slope. IC50 values were derived from the fitted curve.
The inhibition constants (Ki) were calculated according to the equation of Cheng and Prusoff, Ki = IC50/(1+([S]0/Km), wherein IC50 is the functional strength of the inhibitor, [S]0 is the total substrate concentration, and Km is the Michaelis-Menten constant. […]
the substrate Boc-Gln-Gly-Arg-AMC. […]

[1] = purified peptide without coumarin label, read-out: Ki human FXIIa

T1 sequence (P00748 373-615 limits assumed, other chains not shown): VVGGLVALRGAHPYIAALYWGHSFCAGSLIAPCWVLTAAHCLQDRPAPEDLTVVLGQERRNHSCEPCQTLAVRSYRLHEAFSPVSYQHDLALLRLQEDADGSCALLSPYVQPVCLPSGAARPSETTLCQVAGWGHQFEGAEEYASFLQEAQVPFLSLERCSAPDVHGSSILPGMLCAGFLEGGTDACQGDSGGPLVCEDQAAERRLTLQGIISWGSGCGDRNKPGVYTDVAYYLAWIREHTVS

Residual activity of human FXIIa (inhibitor 0.0976562 nM, 97.66 pM): 91.4189%
remaining activity at 97.66 pM (inhibitor 0.0976562 nM, read-out: Residual activity of human FXIIa): 93.2%
Residual activity of human FXIIa (inhibitor 0.195312 nM, 0.000195312 µM): 81.1824%
remaining activity at 0.000195312 µM (inhibitor 0.195312 nM, read-out: Residual activity of human FXIIa): 90.3%
Residual activity of human FXIIa (inhibitor 0.390625 nM, 0.000390625 µM): 72.286%
remaining activity at 0.000390625 µM (inhibitor 0.390625 nM, read-out: Residual activity of human FXIIa): 82.1%
Residual activity of human FXIIa (inhibitor 0.78125 nM, 0.00078125 µM): 58.8964%
remaining activity at 0.00078125 µM (inhibitor 0.78125 nM, read-out: Residual activity of human FXIIa): 69.4%
Residual activity of human FXIIa (inhibitor 1.5625 nM, 0.0015625 µM): 43.9302%
remaining activity at 0.0015625 µM (inhibitor 1.5625 nM, read-out: Residual activity of human FXIIa): 53.9%
Residual activity of human FXIIa (inhibitor 3.125 nM, 0.003125 µM): 29.5158% and 36.4925%
remaining activity at 0.003125 µM (inhibitor 3.125 nM, read-out: Residual activity of human FXIIa): 34.3%
Residual activity of human FXIIa (inhibitor 6.25 nM, 0.00625 µM): 18.0743% and 21.4703%
remaining activity at 0.00625 µM (inhibitor 6.25 nM, read-out: Residual activity of human FXIIa): 20.1%
Residual activity of human FXIIa (inhibitor 12.5 nM, 0.0125 µM): 10.9718% and 11.488%
remaining activity at 0.0125 µM (inhibitor 12.5 nM, read-out: Residual activity of human FXIIa): 10.6%
remaining activity at […] (inhibitor 25 nM, read-out: Residual activity of human FXIIa): 4.82%
Residual activity of human FXIIa (inhibitor 50 nM, 0.05 µM): 4.39% and 3.29%
remaining activity at 0.05 µM (inhibitor 50 nM, read-out: Residual activity of human FXIIa): 2.6%
Residual activity of human FXIIa (inhibitor 100 nM, 0.1 µM): 1.025% and 3.134% and 1.703%
remaining activity at 0.2 µM (inhibitor 200 nM, read-out: Residual activity of human FXIIa): 0.731%
remaining activity at 0.4 µM (inhibitor 400 nM, read-out: Residual activity of human FXIIa): 0.3%
Ki [1]: 1.5 ± 0.1 nM
Structure (SMILES): CC(C)C[C@@H]1NC(=O)[C@H](CCC(N)=O)NC(=O)[C@H](CCCNC(=N)N)NC(=O)[C@@H]2CSCCC(=O)N3CN(CN(C3)C(=O)CCSC[C@H](NC(=O)[C@@H](N)CCCNC(=N)N)C(=O)N[C@@H](Cc3ccccc3)C(=O)N[C@@H](CCCNC(=N)N)C(=O)N[C@@H](CC(C)C)C(=O)N3CCC[C@H]3C(=O)N2)C(=O)CCSC[C@@H](C(=O)N[C@@H](CCCNC(=N)N)C(N)=O)NC(=O)C[C@H](CCCNC(=N)N)NC1=O [FXII700]

Residual activity of human FXIIa (inhibitor 0.12207 nM, 0.00012207 µM): 86.6295% and 91.1755%
remaining activity at 0.00012207 µM (inhibitor 0.12207 nM, read-out: Residual activity of human FXIIa): 94.2%
Residual activity of human FXIIa (inhibitor 0.244141 nM, 0.000244141 µM): 82.4999% and 82.653%
remaining activity at 0.000244141 µM (inhibitor 0.244141 nM, read-out: Residual activity of human FXIIa): 87%
Residual activity of human FXIIa (inhibitor 0.488281 nM, 0.000488281 µM): 69.0437% and 70.79%
remaining activity at 0.000488281 µM (inhibitor 0.488281 nM, read-out: Residual activity of human FXIIa): 70.3%
Residual activity of human FXIIa (inhibitor 1.95312 nM, 0.00195312 µM): 33.1082% and 35.3323%
remaining activity at 0.00195312 µM (inhibitor 1.95312 nM, read-out: Residual activity of human FXIIa): 31.8%
Residual activity of human FXIIa (inhibitor 3.90625 nM, 0.00390625 µM): 19.4631% and 21.6747%
remaining activity at 0.00390625 µM (inhibitor 3.90625 nM, read-out: Residual activity of human FXIIa): 16.9%
Residual activity of human FXIIa (inhibitor 7.8125 nM, 0.0078125 µM): 10.6116% and 10.9279%
remaining activity at 0.0078125 µM (inhibitor 7.8125 nM, read-out: Residual activity of human FXIIa): 9.32%
Residual activity of human FXIIa (inhibitor 15.625 nM, 0.015625 µM): 6.273% and 6.117%
remaining activity at 0.015625 µM (inhibitor 15.625 nM, read-out: Residual activity of human FXIIa): 6.19%
Residual activity of human FXIIa (inhibitor 31.25 nM, 0.03125 µM): 3.754% and 3.106%
remaining activity at 0.03125 µM (inhibitor 31.25 nM, read-out: Residual activity of human FXIIa): 2.96%
Residual activity of human FXIIa (inhibitor 62.5 nM, 0.0625 µM): 2.455% and 1.836%
remaining activity at 0.0625 µM (inhibitor 62.5 nM, read-out: Residual activity of human FXIIa): 1.51%
Residual activity of human FXIIa (inhibitor 125 nM, 0.125 µM): 1.461% and 1.1009%
remaining activity at 0.125 µM (inhibitor 125 nM, read-out: Residual activity of human FXIIa): 1.19%
Residual activity of human FXIIa (inhibitor 0.976562 / 0.976563 nM, 0.000976563 µM): 50.5477% and 54.5303%
remaining activity at 0.000976563 µM (inhibitor 0.976562 / 0.976563 nM, read-out: Residual activity of human FXIIa): 50.5%
Ki [1]: 0.84 ± 0.03 nM
Structure (SMILES): CC(C)C[C@@H]1NC(=O)[C@H](CCC(N)=O)NC(=O)[C@H](CCCNC(=N)N)NC(=O)[C@@H]2CSCCC(=O)N3CN(CN(C3)C(=O)CCSC[C@H](NC(=O)[C@@H](N)CCCNC(=N)N)C(=O)N[C@@H](Cc3ccc(F)cc3)C(=O)N[C@@H](CCCNC(=N)N)C(=O)N[C@@H](CC(C)C)C(=O)N3CCC[C@H]3C(=O)N2)C(=O)CCSC[C@@H](C(=O)N[C@@H](CCCNC(=N)N)C(N)=O)NC(=O)[C@H](CCCNC(=N)N)NC1=O [FXII800]

Ki (negative control peptide, read-out: Ki FXIIa): 39000 ± 14000 nM
Structure (SMILES): CC(C)C[C@@H]1NC(=O)[C@H](CCC(N)=O)NC(=O)[C@H](Cc2c[nH]cn2)NC(=O)[C@@H]2CSCCC(=O)N3CN(CN(C3)C(=O)CCSC[C@H](NC(=O)[C@@H](CO)NC(=O)[C@H](N)CCCNC(=N)N)C(=O)N[C@@H](Cc3ccccc3)C(=O)N[C@@H](C)C(=O)N[C@@H](CC(C)C)C(=O)N3CCC[C@H]3C(=O)N2)C(=O)CCSC[C@@H](C(N)=O)NC(=O)[C@H](CCCNC(=N)N)NC1=O [FXII901] (HELM PEPTIDE1{[dR].[dS].C.F.A.L.P.C.H.Q.L.R.C.[am]}|CHEM1{[O=C(CC[*:1])N1CN(C(=O)CC[*:2])CN(C(=O)CC[*:3])C1]}$PEPTIDE1,CHEM1,3:R3-1:R1|PEPTIDE1,CHEM1,8:R3-1:R2|PEPTIDE1,CHEM1,13:R3-1:R3$$$V2.0)
